Measurements from US4680293A, “3-imidazolylalkyl-, triazolylalkyl-, pyridinylalkyl-1,2,3-benzotriazin-4(3H)-ones and derivatives thereof” (American Cyanamid Company, priority 1986, dated 1987).

Biological target: T1, thromboxane synthetase (Rattus norvegicus, UniProt P49430)
T1 sequence (P49430 1-533): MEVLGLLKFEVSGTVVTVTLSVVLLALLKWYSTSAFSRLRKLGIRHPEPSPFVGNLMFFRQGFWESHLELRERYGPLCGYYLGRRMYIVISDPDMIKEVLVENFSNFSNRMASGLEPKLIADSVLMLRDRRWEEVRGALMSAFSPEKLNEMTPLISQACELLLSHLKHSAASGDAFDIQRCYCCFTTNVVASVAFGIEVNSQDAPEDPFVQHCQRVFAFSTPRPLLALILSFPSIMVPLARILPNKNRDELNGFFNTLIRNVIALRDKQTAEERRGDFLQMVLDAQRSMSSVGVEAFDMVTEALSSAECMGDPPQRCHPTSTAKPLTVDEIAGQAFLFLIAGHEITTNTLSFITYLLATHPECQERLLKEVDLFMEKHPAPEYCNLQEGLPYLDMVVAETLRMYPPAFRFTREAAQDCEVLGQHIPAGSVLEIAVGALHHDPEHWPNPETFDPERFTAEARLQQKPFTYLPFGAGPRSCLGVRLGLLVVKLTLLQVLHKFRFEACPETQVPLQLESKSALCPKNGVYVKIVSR
Assay: Inhibition of thromboxane formation in washed SHR platelets (TXB2 by direct radioimmunoassay)
Conditions: read-out: % Inhibition (of TXB2 formation), drug at 10^-4 M, 10 minutes at 37° C.
Method: From Okamoto-Aoki spontaneously hypertensive rats (SHR) (Taconic Farms, Germantown, NY) between 19 and 24 weeks in age, under urethane anesthesia, 10 μl of arterial blood was collected in one ml of 3.2% sodium citrate in a polystyrene tube. The blood was diluted with 3 ml cold saline and centrifuged at room temperature for 15 minutes at 460×g. The platelet rich plasma (PRP) was separated. The platelets were isolated by centrifuging the PRP for 10 minutes at 1060×g and were washed in 4 ml cold oxygenated Krebs phosphate buffer, pH 7.4. The chilled platelets recovered from centrifuging at 800×g for 10 minutes were resuspended in oxygenated Krebs phosphate buffer and diluted to contain 4.5-6.0×10^4 platelets/μl.
The inhibition of thromboxane (TX) formation was studied by determining the concentration of thromboxane B2 (TXB2), the stable hydrolysis product of TXA2. Assay samples, prepared on ice, contained 200 μl platelet suspension, 50 μl saline, and 50 μl vehicle or drug under study at a concentration of 10^-4 M (with OKY-1581, UK-37248-01, 1-benzylimidazole, and/or indomethacin used as standards). […] The TXB2 content for each sample was determined by a direct radioimmunoassay (RIA) utilizing a TXB2 specific RIA kit purchased from New England Nuclear, Boston, MA and results expressed as pg TXB2 formed minute^-1 sample^- 1, from which the percent inhibition of TXB2 formation was calculated.

SMILES	inhibition at 100 µM [%]
CC(Cn1ccnc1)Cn1nnc2ccc(Cl)cc2c1=O (centres unmarked) [6-Chloro-3-[3-(1H-imidazol-1-yl)-2-methylpropyl]-1,2,3-benzotriazin-4(3H)-one]	97
O=c1c2cc(Cl)ccc2nnn1CCCCn1ccnc1	79
